Laboratory results reported in US12441768B2, “Compositions and methods for treating endometriosis” (EndoMet Biosciences, Inc., priority 2018, dated 2025).
Where a SMILES comes first, the peptide text is derived from it.

Columns and labels:
[1] = target: Wnt-responsive promoter (TCF/LEF); assay: Wnt-dependent luciferase reporter assay; type: cell-based, murine
Procedure, shortened: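 Murine 3T3 fibroblasts carrying a TCF/LEF-driven luciferase reporter, stimulated with Wnt3a in the presence of increasing peptide concentrations or vehicle. Luminescence inhibition gave EC50 values in uM.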

[2] = target: T1, β-catenin (Homo sapiens, UniProt P35222); assay: KD50 measurement using competitive fluorescence polarization (FP) with labelled TCF4; type: binding; details: fluorescence polarization, β-catenin; for Kd: read-out: β-Cat FP KD
T1 sequence (P35222 1-781): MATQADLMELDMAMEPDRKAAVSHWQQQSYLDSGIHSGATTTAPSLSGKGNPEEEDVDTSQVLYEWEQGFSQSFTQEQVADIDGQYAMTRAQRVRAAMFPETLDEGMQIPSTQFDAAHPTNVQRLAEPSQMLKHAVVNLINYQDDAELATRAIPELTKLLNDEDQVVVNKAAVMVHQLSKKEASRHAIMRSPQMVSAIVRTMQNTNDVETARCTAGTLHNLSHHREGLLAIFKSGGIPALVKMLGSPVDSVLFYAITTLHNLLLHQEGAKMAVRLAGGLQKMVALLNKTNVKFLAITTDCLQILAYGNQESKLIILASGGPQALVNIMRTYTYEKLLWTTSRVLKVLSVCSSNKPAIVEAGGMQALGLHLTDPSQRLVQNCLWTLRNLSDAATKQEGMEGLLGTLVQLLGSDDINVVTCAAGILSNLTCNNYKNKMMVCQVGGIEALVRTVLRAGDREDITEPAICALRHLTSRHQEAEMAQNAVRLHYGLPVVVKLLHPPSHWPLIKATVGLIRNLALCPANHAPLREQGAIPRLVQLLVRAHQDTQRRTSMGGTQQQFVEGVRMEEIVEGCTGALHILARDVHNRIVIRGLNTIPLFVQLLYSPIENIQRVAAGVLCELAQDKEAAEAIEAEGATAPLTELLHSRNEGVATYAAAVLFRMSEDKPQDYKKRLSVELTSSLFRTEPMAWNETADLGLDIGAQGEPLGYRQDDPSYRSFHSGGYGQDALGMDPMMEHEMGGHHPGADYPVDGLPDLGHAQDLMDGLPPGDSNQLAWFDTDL
Procedure, shortened: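 Competitive FP in which unlabelled inhibitor (10 nM to 30 uM dilution series) displaces 5 nM labelled TCF4 from 100 nM β-catenin, room temperature. Read-out ex 470 nm, em 520 nm; experiment repeated three times.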

[3] = % Viability non-Wnt responsive cells

Row | Compound | EC50 [1] [µM] | β-Cat FP Hill slope [2] | viability [3] [%] | Kd [2] [µM]
1 | CC[C@H](C)[C@H](NC(=O)[C@H](CC(C)C)NC(=O)[C@H](Cc1ccccc1)NC(=O)[C@H](Cc1c[nH]c2ccccc12)NC(=O)[C@@H](N)CCSC)C(=O)N[C@@H](CS)C(=O)N[C@@H](Cc1cncn1C)C(=O)N[C@@H](Cc1c[nH]c2ccccc12)C(=O)NCC(=O)O [compound 135] (HELM PEPTIDE1{M.W.F.L.I.C.[Cn1cncc1C[C@H](N[*:1])C(=O)[*:2]].W.G}$$$$V2.0) | 7.5 to 15 | 0.7 | 107 | –
2 | CC[C@H](C)[C@@H]1NC(=O)[C@H](CC(C)C)NC(=O)[C@H](Cc2ccccc2)NC(=O)[C@H](Cc2c[nH]c3ccccc23)NC(=O)[C@@H](NC(C)=O)CCCCNC(=O)CC[C@@H](C(=O)O)NC(=O)[C@H](Cc2c[nH]c3ccccc23)NC(=O)[C@H](Cc2ccccc2)NC(=O)[C@H](CS)NC1=O [compound 185] (HELM PEPTIDE1{[ac].K.W.F.L.I.C.F.W.E}$PEPTIDE1,PEPTIDE1,2:R3-10:R3$$$V2.0) | 22.5 to 30 | 1.32 | 87.8 | < 0.4
3 | CC[C@H](C)[C@H](NC(=O)[C@H](CC(C)C)NC(=O)[C@@H](NC(=O)[C@H](Cc1c[nH]c2ccccc12)NC(=O)[C@@H](N)CCSC)[C@@H](C)CC)C(=O)N[C@@H](CO)C(=O)N[C@@H](Cc1ccccc1)C(=O)N[C@@H](Cc1c[nH]c2ccccc12)C(=O)NCC(=O)O [compound 155] (H-MWILISFWG-OH) | > 30 | – | 97 | > 30
4 | CC[C@H](C)[C@H](NC(=O)[C@H](CC(C)C)NC(=O)C(C)(Cc1ccccc1)NC(=O)[C@H](Cc1c[nH]c2ccccc12)NC(=O)[C@@H](N)CCSC)C(=O)N[C@@H](CO)C(=O)N[C@@H](Cc1ccccc1)C(=O)N[C@@H](Cc1c[nH]c2ccccc12)C(=O)NCC(=O)O (stereo partly drawn) [compound 133] (HELM PEPTIDE1{M.W.[CC(Cc1ccccc1)(N[*:1])C(=O)[*:2]].L.I.S.F.W.G}$$$$V2.0) | > 30 | 3 | 95.4 | < 0.4
5 | CC[C@H](C)[C@H](NC(=O)[C@H](CC(C)C)NC(=O)[C@H](Cc1ccccc1)NC(=O)[C@H](Cc1c[nH]c2ccccc12)NC(=O)[C@H](CCSC)NC(=O)[C@H](CCCNC(=N)N)NC(=O)[C@H](CO)NC(=O)[C@@H](N)Cc1ccccc1)C(=O)N[C@@H](CO)C(=O)N[C@@H](Cc1ccccc1)C(=O)N[C@@H](Cc1c[nH]c2ccccc12)C(N)=O [compound 81] (H-FSRMWFLISFW-NH2) | > 30 | – | 90.7 | > 30
6 | CC[C@H](C)[C@H](NC(=O)[C@H](CC(C)C)NC(=O)[C@@H](NC(=O)[C@H](Cc1c[nH]c2ccccc12)NC(=O)[C@@H](N)Cc1c[nH]cn1)[C@@H](C)CC)C(=O)N[C@@H](CO)C(=O)N[C@@H](Cc1ccccc1)C(=O)N[C@@H](Cc1c[nH]c2ccccc12)C(=O)NCC(=O)O [compound 126] (H-HWILISFWG-OH) | < 7.5 | 0.99 | 111 | < 0.4
7 | CC[C@H](C)[C@H](NC(=O)[C@H](CC(C)C)NC(=O)[C@H](Cc1ccccc1)NC(=O)[C@@H](N)Cc1c[nH]c2ccccc12)C(=O)N[C@H](C(=O)N[C@H](C(=O)N[C@@H](Cc1c[nH]c2ccccc12)C(=O)O)[C@@H](C)O)[C@@H](C)O [compound 100] (H-WFLITTW-OH) | 7.5 to 15 | 2.8 | 102 | 1 to 10
8 | CC[C@H](C)[C@H](NC(=O)[C@H](CC(C)C)NC(=O)C(C)(Cc1ccccc1)NC(=O)[C@H](Cc1c[nH]c2ccccc12)NC(=O)[C@@H](N)CCSC)C(=O)N[C@@H](CS)C(=O)N[C@@H](Cc1ccccc1)C(=O)N[C@@H](Cc1c[nH]c2ccccc12)C(=O)NCC(=O)O (stereo partly drawn) [compound 131] (HELM PEPTIDE1{M.W.[CC(Cc1ccccc1)(N[*:1])C(=O)[*:2]].L.I.C.F.W.G}$$$$V2.0) | 7.5 to 15 | 1.27 | 93.1 | < 0.4
9 | CC[C@H](C)[C@H](NC(=O)[C@H](CC(C)C)NC(=O)[C@H](CC1CCCCC1)NC(=O)[C@H](Cc1c[nH]c2ccccc12)NC(=O)[C@H](CCSC)NC(C)=O)C(=O)N[C@@H](CO)C(=O)N[C@@H](Cc1ccccc1)C(=O)N[C@@H](Cc1c[nH]c2ccccc12)C(=O)NCC(=O)O [compound 216] (HELM PEPTIDE1{[ac].M.W.[Cha].L.I.S.F.W.G}$$$$V2.0) | < 7.5 | 1.35 | 100 | 0.4 to 1
10 | CC[C@H](C)[C@@H]1NC(=O)[C@H](CC(C)C)NC(=O)[C@H](Cc2ccccc2)NC(=O)[C@H](Cc2c[nH]c3ccccc23)NC(=O)[C@@H](N)CCCCNC(=O)CC[C@@H](C(=O)N[C@@H](Cc2c[nH]c3ccccc23)C(=O)NCC(=O)O)NC(=O)[C@H](CS)NC1=O [compound 173] (HELM PEPTIDE1{K.W.F.L.I.C.E.W.G}$PEPTIDE1,PEPTIDE1,1:R3-7:R3$$$V2.0) | > 30 | 0.7 | 107 | –
11 | CC[C@H](C)[C@H](NC(=O)[C@H](CC(C)C)NC(=O)[C@@H](NC(=O)[C@H](Cc1c[nH]c2ccccc12)NC(=O)[C@H](CCSC)NC(=O)[C@@H](N)CCCNC(=N)N)[C@@H](C)CC)C(=O)N[C@@H](CS)C(=O)N[C@@H](Cc1ccccc1)C(=O)N[C@@H](Cc1c[nH]c2ccccc12)C(=O)NCC(=O)O [compound 115] (H-RMWILICFWG-OH) | 15 to 22.5 | 0.7 | 116 | 1 to 10
12 | CC[C@H](C)[C@H](NC(=O)[C@H](CC(C)C)NC(=O)[C@H](Cc1ccccc1)NC(=O)[C@H](Cc1c[nH]c2ccccc12)NC(=O)[C@H](CCSC)NC(=O)[C@H](CCCNC(=N)N)NC(=O)[C@H](CC(N)=O)NC(=O)[C@@H](N)CCSC)C(=O)N[C@@H](CO)C(=O)N[C@@H](Cc1ccccc1)C(=O)N[C@@H](Cc1c[nH]c2ccccc12)C(=O)NCC(=O)O [compound 61] (H-MNRMWFLISFWG-OH) | 7.5 to 15 | – | 100 | > 30
13 | CC[C@H](C)[C@H](NC(=O)[C@H](CC(C)C)NC(=O)[C@@H](NC(=O)C(C)(Cc1c[nH]c2ccccc12)NC(=O)[C@@H](N)CCSC)[C@@H](C)CC)C(=O)N[C@@H](CS)C(=O)N[C@@H](Cc1ccccc1)C(=O)N[C@@H](Cc1c[nH]c2ccccc12)C(=O)NCC(=O)O (stereo partly drawn) [compound 132] (HELM PEPTIDE1{M.[CC(Cc1c[nH]c2ccccc12)(N[*:1])C(=O)[*:2]].I.L.I.C.F.W.G}$$$$V2.0) | 7.5 to 15 | 0.7 | 102 | < 0.4
14 | CC[C@H](C)[C@H](NC(=O)[C@H](CC(C)C)NC(=O)[C@@H](NC(=O)[C@H](Cc1c[nH]c2ccccc12)NC(=O)[C@H](CCSC)NC(=O)[C@@H](N)Cc1c[nH]cn1)[C@@H](C)CC)C(=O)N[C@@H](CO)C(=O)N[C@@H](Cc1ccccc1)C(=O)N[C@@H](Cc1c[nH]c2ccccc12)C(=O)NCC(=O)O [compound 123] (H-HMWILISFWG-OH) | < 7.5 | 1.07 | 107 | < 0.4
15 | CC[C@H](C)[C@@H]1NC(=O)[C@H](CC(C)C)NC(=O)[C@H](Cc2ccccc2)NC(=O)[C@H](Cc2c[nH]c3ccccc23)NC(=O)[C@@H](NC(C)=O)CCCCNC(=O)CC[C@@H](C(=O)O)NC(=O)[C@H](Cc2c[nH]c3ccccc23)NC(=O)[C@H](Cc2ccccc2)NC(=O)[C@H](C)NC1=O [compound 200] (HELM PEPTIDE1{[ac].K.W.F.L.I.A.F.W.E}$PEPTIDE1,PEPTIDE1,2:R3-10:R3$$$V2.0) | < 7.5 | 0.7 | 81.4 | 1 to 10
16 | CC[C@H](C)[C@@H]1NC(=O)[C@H](CC(C)C)NC(=O)[C@H](Cc2ccccc2)NC(=O)[C@H](Cc2c[nH]c3ccccc23)NC(=O)[C@H](CCSC)NC(=O)[C@@H](N)CCCCNC(=O)C[C@@H](C(=O)O)NC(=O)[C@H](Cc2c[nH]c3ccccc23)NC(=O)[C@H](C)NC(=O)[C@H](CS)NC1=O [compound 167] (HELM PEPTIDE1{K.M.W.F.L.I.C.A.W.D}$PEPTIDE1,PEPTIDE1,1:R3-10:R3$$$V2.0) | 7.5 to 15 | 0.7 | 98.8 | 1 to 10
17 | CCOC[C@H](NC(=O)[C@H](CO)NC(=O)[C@@H](NC(=O)[C@H](CC(C)C)NC(=O)[C@H](Cc1ccccc1)NC(=O)[C@H](Cc1c[nH]c2ccccc12)NC(=O)[C@H](CCSC)NC(=O)[C@H](CCCNC(=N)N)NC(=O)[C@H](CO)NC(=O)[C@@H](N)CCSC)[C@@H](C)CC)C(=O)N[C@@H](Cc1c[nH]c2ccccc12)C(=O)O [compound 105] (H-MSRMWFLISS(Et)W-OH) | 7.5 to 15 | 0.7 | 96.8 | 1 to 10
